# Counter-ions that a name gives are not always drawn.
# What was measured:
# Proteus mirabilis ON153 [1] = experiment: Checkerboard FBEC index, 48-h biofilm; format: cell-based; conditions: P. mirabilis ON153 biofilm; EDTA + chlorhexidine HCl
# Protocol: (§3) In step (4), microtiter plates are incubated at 37° C. for 24 h. then (6), after incubation, the bacterial and fungal cells were dislodged from the pegs into the recovery medium described above.
# (§4) Three 10-μL aliquots, for a total of 30 μL from each well of recovery medium, were spotted on MH agar plates and incubated for 24 h at 37° C. […] The FBEC determination is a modification of the FICI.
# S. epidermidis SK9 [2] = experiment: MIC, micro broth dilution; format: cell-based, Staphylococcus epidermidis; conditions: agent alone
# Protocol: (§1) An assay was made using a minimum inhibitory concentration (MIC) and minimum bactericidal concentration (MBC) and minimum fungicidal concentration (MFC) determination. The MIC was determined by the micro broth dilution method in 96-well plates. Serial two-fold dilutions of tetrasodium EDTA (from 2% to 0.015%), ethanol (from 50% to 0.1%) and chlorhexidine HCl (from 100 μg/mL to 0.025 μg/mL) were prepared in MH broth with a final volume of 90 μL per well. A 10 μL containing 1×10^5 bacterial cells or 2×10^3 fungal cells were added to each well. The inoculated plates were covered with a lid, sealed with Parafilm, and incubated for 24 h at 37° C. with slight rocking on a tilting platform shaker. After incubation, the optical density at 600 nm (OD 600) of the cultures in each well was measured using an xMark™ Microplate Absorbance Spectrophotometer (Bio-Rad). […] MBCs and MFCs were determined by transferring 100 μL from each well with no apparent growth onto appropriate agar plates, followed by incubation for 24 h at 37° C.
# C. albicans ON47 = experiment: MIC, micro broth dilution; format: cell-based, Candida albicans; conditions: agent alone
# Protocol: as §1
# S. epidermidis SK9 [3] = experiment: MBC/MFC determination; format: cell-based, Staphylococcus epidermidis; conditions: agent alone
# Protocol: as §1
# Proteus mirabilis ON153 [4] = experiment: MBC/MFC determination; format: cell-based; conditions: P. mirabilis ON153; agent alone
# Protocol: as §1
# [5] = system: Pseudomonas aeruginosa SK1; experiment: MBC/MFC determination; format: cell-based; conditions: P. aeruginosa SK1; agent alone
# Protocol: as §1
# [6] = system: Staphylococcus epidermidis ON170; experiment: MBC/MFC determination; format: cell-based; conditions: S. epidermidis ON170; agent alone
# Protocol: as §1
# [7] = system: Stenotrophomonas maltophilia ON17; experiment: MBC/MFC determination; format: cell-based; conditions: S. maltophilia ON17; agent alone
# Protocol: as §1
# Candida albicans SK4b [8] = experiment: MBC/MFC determination; format: cell-based; conditions: C. albicans SK4b; agent alone
# Protocol: as §1
# Serratia marcescens SK2 = experiment: MBC/MFC determination; format: cell-based; conditions: S. marcescens SK2; agent alone
# Protocol: as §1
# [9] = system: Staphylococcus aureus ON89; experiment: MBC/MFC determination; format: cell-based; conditions: S. aureus ON89; agent alone
# Protocol: as §1
# Escherichia coli ON29 [10] = experiment: MBC/MFC determination; format: cell-based; conditions: E. coli ON29; agent alone
# Protocol: as §1
# MRSA ON184 = experiment: MBEC assay, 48-h biofilm; format: cell-based, Staphylococcus aureus; conditions: MRSA ON184 48-h biofilm; 24 h exposure
# Protocol: A biofilm cultivation cell composition was provided. This fifth composition was created using an MBEC Assay® biofilm inoculator, consisting of a polystyrene lid with 96 downward-protruding pegs and a corresponding base used to grow biofilms. A standardized inoculum was diluted in an appropriate biofilm growth medium to achieve a viable cell count of 1.5×10^6 CFU/mL of bacterial cells or 5×10^5 CFU/mL of fungal cells. Then, 150 μL of this inoculum was transferred into each appropriate well, and the peg lids were inserted into the microtiter plates. The plates were sealed with Parafilm and were incubated at optimum temperature for 48 h with slight rocking for bacteria and shaking at 200 rpm for fungal strains. After incubation, the peg lid was removed from the base and rinsed twice with sterile phosphate-buffered saline (PBS) for 2 min to remove loosely attached non-sessile cells. Before the antimicrobial challenge, the pegs in column 1 (n=8) were considered the biofilm growth control; these pegs were removed from the lids, placed into 200 μL of recovery medium, and analyzed for starting biofilm cell numbers as described below. […] MBEC values were determined as the minimum concentration of antimicrobials that yielded a viable cell count at or lower than the 125 CFU/mL detection limit.
# Proteus mirabilis ON153 [11] = experiment: MBEC assay, 48-h biofilm; format: cell-based; conditions: P. mirabilis ON153 48-h biofilm; 24 h exposure
# Protocol: (§2) A biofilm cultivation cell composition was provided. This fifth composition was created using an MBEC Assay® biofilm inoculator, consisting of a polystyrene lid with 96 downward-protruding pegs and a corresponding base used to grow biofilms. A standardized inoculum was diluted in an appropriate biofilm growth medium to achieve a viable cell count of 1.5×10^6 CFU/mL of bacterial cells or 5×10^5 CFU/mL of fungal cells. Then, 150 μL of this inoculum was transferred into each appropriate well, and the peg lids were inserted into the microtiter plates. The plates were sealed with Parafilm and were incubated at optimum temperature for 48 h with slight rocking for bacteria and shaking at 200 rpm for fungal strains. After incubation, the peg lid was removed from the base and rinsed twice with sterile phosphate-buffered saline (PBS) for 2 min to remove loosely attached non-sessile cells. Before the antimicrobial challenge, the pegs in column 1 (n=8) were considered the biofilm growth control; these pegs were removed from the lids, placed into 200 μL of recovery medium, and analyzed for starting biofilm cell numbers as described below. The rinsed pegs were placed into new 96-well plates containing two-fold dilutions of antimicrobials such as tetrasodium EDTA (4%-0.0125%), ethanol (100%-0.2%), and chlorhexidine HCl (100 μg/mL-0.4 μg/mL) in 200 μL of suitable biofilm growth medium per well and incubated at optimum temperature for 24 h. After the antimicrobial challenge, the pegs were rinsed twice with sterile PBS for 2 min and placed into a new 96-well plate containing 200 μL of recovery medium. The recovery plates were sealed with Parafilm, and biofilm cells were dislodged from the pegs by sonication for 30 min with a Branson 3510 bath sonicator. The biofilm cells in the recovery medium were serially diluted, and a drop dilution assay was performed to enumerate the viable cells. MBEC values were determined as the minimum concentration of antimicrobials that yielded a viable cell count at or lower than the 125 CFU/mL detection limit.
# [12] = system: Pseudomonas aeruginosa SK1; experiment: MBEC assay, 48-h biofilm; format: cell-based; conditions: P. aeruginosa SK1 48-h biofilm; 24 h exposure
# Protocol: as §2
# Candida albicans SK4b [13] = experiment: MBEC assay, 48-h biofilm; format: cell-based; conditions: C. albicans SK4b 48-h biofilm; 24 h exposure
# Protocol: as §2
# Escherichia coli SK2 = experiment: MBEC assay, 48-h biofilm; format: cell-based; conditions: E. coli SK2 48-h biofilm; 24 h exposure
# Protocol: as §2
# [14] = system: Staphylococcus epidermidis SK9; experiment: MBEC assay, 48-h biofilm; format: cell-based; conditions: S. epidermidis SK9 48-h biofilm; 24 h exposure
# Protocol: as §2
# [15] = system: Staphylococcus aureus ON89; experiment: MBEC assay, 48-h biofilm; format: cell-based; conditions: S. aureus ON89 48-h biofilm; 24 h exposure
# Protocol: as §2
# Candida albicans SK4b [16] = experiment: Checkerboard FBEC index, 48-h biofilm; format: cell-based; conditions: C. albicans SK4b biofilm; EDTA + chlorhexidine HCl
# Protocol: as §3, §4
# Proteus mirabilis ON153 [17] = experiment: MIC, micro broth dilution; format: cell-based; conditions: P. mirabilis ON153; agent alone
# Protocol: as §1
# [18] = system: Pseudomonas aeruginosa SK1; experiment: MIC, micro broth dilution; format: cell-based; conditions: P. aeruginosa SK1; agent alone
# Protocol: as §1
# [19] = system: Stenotrophomonas maltophilia ON17; experiment: MIC, micro broth dilution; format: cell-based; conditions: S. maltophilia ON17; agent alone
# Protocol: as §1
# Candida albicans SK4b [20] = experiment: MIC, micro broth dilution; format: cell-based; conditions: C. albicans SK4b; agent alone
# Protocol: as §1
# [21] = system: Staphylococcus aureus ON89; experiment: MIC, micro broth dilution; format: cell-based; conditions: S. aureus ON89; agent alone
# Protocol: as §1
# Escherichia coli ON29 [22] = experiment: MIC, micro broth dilution; format: cell-based; conditions: E. coli ON29; agent alone
# Protocol: as §1
compound,measurement,setting,value
"[H]/N=C(\N/C(=N/[H])NCCCCCCNC(=N)NC(=N)Nc1ccc(Cl)cc1)Nc1ccc(Cl)cc1 [Chlorhexidine HCl, chlorhexidine HCl, reference compound]",Biofilm eradication concentration in combination (FBEC),Proteus mirabilis ON153 [1],3.125 µg/mL
"O=C([O-])CN(CCN(CC(=O)[O-])CC(=O)[O-])CC(=O)[O-].[Na+].[Na+].[Na+].[Na+] [EDTA, tetrasodium EDTA]",MIC,S. epidermidis SK9 [2],0.063 % w/v
same,MIC,C. albicans ON47,1 % w/v
same,MBC/MFC,S. epidermidis SK9 [3],0.5 % w/v
same,MBC/MFC,Proteus mirabilis ON153 [4],2 % w/v
same,MBC/MFC,[5],1 % w/v
same,MBC/MFC,[6],0.5 % w/v
same,MBC/MFC,[7],1 % w/v
same,MBC/MFC,Candida albicans SK4b [8],1 % w/v
same,MBC/MFC,Serratia marcescens SK2,2 % w/v
same,MBC/MFC,[9],1 % w/v
same,MBC/MFC,Escherichia coli ON29 [10],1 % w/v
same,MBEC,MRSA ON184,2 % w/v
same,MBEC,Proteus mirabilis ON153 [11],4 % w/v
same,MBEC,[12],4 % w/v
same,MBEC,Candida albicans SK4b [13],1 % w/v
same,MBEC,Escherichia coli SK2,2 % w/v
same,MBEC,[14],2 % w/v
same,MBEC,[15],4 % w/v
same,Biofilm eradication concentration in combination (FBEC),Candida albicans SK4b [16],0.063 % w/v
same,MIC,Proteus mirabilis ON153 [17],1 % w/v
same,MIC,[18],0.25 % w/v
same,MIC,[19],0.063 % w/v
same,MIC,Candida albicans SK4b [20],1 % w/v
same,MIC,[21],0.063 % w/v
same,MIC,Escherichia coli ON29 [22],0.5 % w/v

# — US20230263758A1, “COMPOSITIONS OF EDTA HAVING ACTIVITY AGAINST PLANKTONIC AND BIOFILM CELLS OF CLINICALLY RELEVANT PATHOGENS” (SterileCare Inc., priority 2022, published 2023)
